# Measurements from patent publication US20260042764A1, “COMPOSITIONS AND METHODS FOR INHIBITION OF KRAS” (TheRas, Inc., priority 2022, published 2026).
# Target: T1, Avi-KRAS G12D (1-169) GppNHp/RAF1 RBD-3xFLAG (52-151) (Homo sapiens, UniProt P01116, G12D)
# T1 construct: Avi-KRAS G12D (1-169)
# Assay: Raf1-KRAS G12D-GppNHP disruption HTRF assay (Biological Example 1)
# Assay type: binding
# Conditions: KRAS G12D, GppNHp-loaded; Table 11
# Procedure, shortened: (§1)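 Percent activity versus DMSO (100%) was derived from HTRF signal after KRAS–RAF1 RBD protein mix was incubated 1 h at room temperature with shaking and detection reagents were added for a further 1 h.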
# T1 sequence (P01116 1-169 isoform P01116-2 G12D): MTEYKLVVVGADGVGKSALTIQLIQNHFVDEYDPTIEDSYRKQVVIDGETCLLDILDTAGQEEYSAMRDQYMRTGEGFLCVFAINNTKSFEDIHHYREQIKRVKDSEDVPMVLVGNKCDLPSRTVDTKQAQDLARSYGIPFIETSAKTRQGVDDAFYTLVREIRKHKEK
row,Compound,IC50 [nM]
1,CN1CCN(c2nc(OC[C@@]34CCCN3C[C@H](F)C4)nc3c(F)c(-c4ccc(F)c5sc(N)c(C#N)c45)c(C(F)(F)F)cc23)CCC1=O [Compound 271],100 to 1000
2,N#Cc1c(N)sc2c(F)ccc(-c3c(C(F)(F)F)cc4c(N5CC[C@@H]5CF)nc(OC[C@@]56CCCN5C[C@H](F)C6)nc4c3F)c12 [Compound 272],100 to 1000
3,CC(=O)N1C[C@H](F)[C@@H](N(C)c2nc(OC[C@@]34CCCN3C[C@H](F)C4)nc3c(F)c(-c4ccc(F)c5sc(N)c(C#N)c45)c(C(F)(F)F)cc23)C1 [Compound 273],100 to 1000
4,CN(c1nc(OC[C@@]23CCCN2C[C@H](F)C3)nc2c(F)c(-c3ccc(F)c4sc(N)c(C#N)c34)c(C(F)(F)F)cc12)[C@@H]1CCCOC1 [Compound 274],100 to 1000
5,CC(=O)N1C[C@@H](N(C)c2nc(OC[C@@]34CCCN3C[C@H](F)C4)nc3c(F)c(-c4ccc(F)c5sc(N)c(C#N)c45)c(C(F)(F)F)cc23)C[C@H]1C [Compound 277],100 to 1000
6,CC(=O)N1CCCN(c2nc(OC[C@@]34CCCN3C[C@H](F)C4)nc3c(F)c(-c4ccc(F)c5sc(N)c(C#N)c45)c(C(F)(F)F)cc23)CC1 [Compound 278],100 to 1000

# Same assay, conditions: KRAS G12D-GppNHp/RAF1 RBD HTRF
row,Compound,IC50 [nM]
1,CC(=O)N1C[C@@H](N(C)c2nc(OC[C@@]34CCCN3C[C@H](F)C4)nc3c(F)c(-c4ccc(F)c5sc(N)c(C#N)c45)c(C(F)(F)F)cc23)C[C@@H]1C [Compound 279],< 100

# Test system: SW620 cells (KRAS G12V)
# Assay: Cell-based pERK HTRF assay in SW620 cell (Biological Example 4)
# Conditions: Homo sapiens, SW-620, SW620 (KRAS G12V) cells, pERK HTRF
# Procedure, shortened: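 In SW620 cells grown in RPMI with 10% FBS, a 4 h compound treatment (0.25% DMSO, 9-point curve from 1 μM) preceded lysis. Phospho-ERK levels were then read by time-resolved FRET at 615 nm emission.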
row,Compound,IC50 [nM]
1,CN1CCN(c2nc(OC[C@@]34CCCN3C[C@H](F)C4)nc3c(F)c(-c4ccc(F)c5sc(N)c(C#N)c45)c(C(F)(F)F)cc23)CCC1=O [Compound 271],< 100
2,N#Cc1c(N)sc2c(F)ccc(-c3c(C(F)(F)F)cc4c(N5CC[C@@H]5CF)nc(OC[C@@]56CCCN5C[C@H](F)C6)nc4c3F)c12 [Compound 272],< 100
3,CC(=O)N1C[C@H](F)[C@@H](N(C)c2nc(OC[C@@]34CCCN3C[C@H](F)C4)nc3c(F)c(-c4ccc(F)c5sc(N)c(C#N)c45)c(C(F)(F)F)cc23)C1 [Compound 273],100 to 1000
4,CN(c1nc(OC[C@@]23CCCN2C[C@H](F)C3)nc2c(F)c(-c3ccc(F)c4sc(N)c(C#N)c34)c(C(F)(F)F)cc12)[C@@H]1CCCOC1 [Compound 274],< 100
5,CC(=O)N1C[C@@H](N(C)c2nc(OC[C@@]34CCCN3C[C@H](F)C4)nc3c(F)c(-c4ccc(F)c5sc(N)c(C#N)c45)c(C(F)(F)F)cc23)C[C@H]1C [Compound 277],< 100
6,CC(=O)N1CCCN(c2nc(OC[C@@]34CCCN3C[C@H](F)C4)nc3c(F)c(-c4ccc(F)c5sc(N)c(C#N)c45)c(C(F)(F)F)cc23)CC1 [Compound 278],< 100
7,CC(=O)N1C[C@@H](N(C)c2nc(OC[C@@]34CCCN3C[C@H](F)C4)nc3c(F)c(-c4ccc(F)c5sc(N)c(C#N)c45)c(C(F)(F)F)cc23)C[C@@H]1C [Compound 279],< 100

# Target: T2, Avi-KRAS WT (1-169) GppNHp/RAF1 RBD-3xFLAG (52-151) (Homo sapiens, UniProt P01116)
# T2 construct: Avi-KRAS WT (1-169)
# T2 sequence (P01116 1-169 isoform P01116-2): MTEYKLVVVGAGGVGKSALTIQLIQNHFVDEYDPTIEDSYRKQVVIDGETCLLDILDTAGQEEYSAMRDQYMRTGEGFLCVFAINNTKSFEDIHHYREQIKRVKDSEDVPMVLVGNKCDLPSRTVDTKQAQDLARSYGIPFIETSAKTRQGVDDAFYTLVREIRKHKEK
# Assay: Raf1-KRAS WT-GppNHP disruption HTRF assay (Biological Example 1)
# Assay type: binding
# Conditions: KRAS WT, GppNHp-loaded; Table 11
# Procedure, shortened: as §1
row,Compound,IC50 [nM]
1,CN1CCN(c2nc(OC[C@@]34CCCN3C[C@H](F)C4)nc3c(F)c(-c4ccc(F)c5sc(N)c(C#N)c45)c(C(F)(F)F)cc23)CCC1=O [Compound 271],100 to 1000
2,N#Cc1c(N)sc2c(F)ccc(-c3c(C(F)(F)F)cc4c(N5CC[C@@H]5CF)nc(OC[C@@]56CCCN5C[C@H](F)C6)nc4c3F)c12 [Compound 272],100 to 1000
3,CC(=O)N1C[C@H](F)[C@@H](N(C)c2nc(OC[C@@]34CCCN3C[C@H](F)C4)nc3c(F)c(-c4ccc(F)c5sc(N)c(C#N)c45)c(C(F)(F)F)cc23)C1 [Compound 273],100 to 1000
4,CN(c1nc(OC[C@@]23CCCN2C[C@H](F)C3)nc2c(F)c(-c3ccc(F)c4sc(N)c(C#N)c34)c(C(F)(F)F)cc12)[C@@H]1CCCOC1 [Compound 274],100 to 1000
5,CC(=O)N1C[C@@H](N(C)c2nc(OC[C@@]34CCCN3C[C@H](F)C4)nc3c(F)c(-c4ccc(F)c5sc(N)c(C#N)c45)c(C(F)(F)F)cc23)C[C@H]1C [Compound 277],100 to 1000
6,CC(=O)N1CCCN(c2nc(OC[C@@]34CCCN3C[C@H](F)C4)nc3c(F)c(-c4ccc(F)c5sc(N)c(C#N)c45)c(C(F)(F)F)cc23)CC1 [Compound 278],100 to 1000

# Same assay, conditions: KRAS WT-GppNHp/RAF1 RBD HTRF
row,Compound,IC50 [nM]
1,CC(=O)N1C[C@@H](N(C)c2nc(OC[C@@]34CCCN3C[C@H](F)C4)nc3c(F)c(-c4ccc(F)c5sc(N)c(C#N)c45)c(C(F)(F)F)cc23)C[C@@H]1C [Compound 279],100 to 1000

# Target: T3, Avi-KRAS G12V (1-169) GppNHp/RAF1 RBD-3xFLAG (52-151) (Homo sapiens, UniProt P01116, G12V)
# T3 construct: Avi-KRAS G12V (1-169)
# T3 sequence (P01116 1-169 isoform P01116-2 G12V): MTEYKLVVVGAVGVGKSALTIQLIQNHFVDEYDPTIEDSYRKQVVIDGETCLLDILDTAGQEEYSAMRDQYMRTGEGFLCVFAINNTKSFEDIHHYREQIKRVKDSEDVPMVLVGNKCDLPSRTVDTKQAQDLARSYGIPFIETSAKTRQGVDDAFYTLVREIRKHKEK
# Assay: Raf1-KRAS G12V-GppNHP disruption HTRF assay (Biological Example 1)
# Assay type: binding
# Conditions: KRAS G12V, GppNHp-loaded; Table 11
# Procedure, shortened: as §1
row,Compound,IC50 [nM]
1,CN1CCN(c2nc(OC[C@@]34CCCN3C[C@H](F)C4)nc3c(F)c(-c4ccc(F)c5sc(N)c(C#N)c45)c(C(F)(F)F)cc23)CCC1=O [Compound 271],100 to 1000
2,N#Cc1c(N)sc2c(F)ccc(-c3c(C(F)(F)F)cc4c(N5CC[C@@H]5CF)nc(OC[C@@]56CCCN5C[C@H](F)C6)nc4c3F)c12 [Compound 272],100 to 1000
3,CC(=O)N1C[C@H](F)[C@@H](N(C)c2nc(OC[C@@]34CCCN3C[C@H](F)C4)nc3c(F)c(-c4ccc(F)c5sc(N)c(C#N)c45)c(C(F)(F)F)cc23)C1 [Compound 273],100 to 1000
4,CN(c1nc(OC[C@@]23CCCN2C[C@H](F)C3)nc2c(F)c(-c3ccc(F)c4sc(N)c(C#N)c34)c(C(F)(F)F)cc12)[C@@H]1CCCOC1 [Compound 274],100 to 1000
5,CC(=O)N1C[C@@H](N(C)c2nc(OC[C@@]34CCCN3C[C@H](F)C4)nc3c(F)c(-c4ccc(F)c5sc(N)c(C#N)c45)c(C(F)(F)F)cc23)C[C@H]1C [Compound 277],100 to 1000
6,CC(=O)N1CCCN(c2nc(OC[C@@]34CCCN3C[C@H](F)C4)nc3c(F)c(-c4ccc(F)c5sc(N)c(C#N)c45)c(C(F)(F)F)cc23)CC1 [Compound 278],100 to 1000

# Same assay, conditions: KRAS G12V-GppNHp/RAF1 RBD HTRF
row,Compound,IC50 [nM]
1,CC(=O)N1C[C@@H](N(C)c2nc(OC[C@@]34CCCN3C[C@H](F)C4)nc3c(F)c(-c4ccc(F)c5sc(N)c(C#N)c45)c(C(F)(F)F)cc23)C[C@@H]1C [Compound 279],100 to 1000

# Target: T4, Avi-KRAS G12R (1-169) GppNHp/RAF1 RBD-3xFLAG (52-151) (Homo sapiens, UniProt P01116, G12R)
# T4 construct: Avi-KRAS G12R (1-169)
# T4 sequence (P01116 1-169 isoform P01116-2 G12R): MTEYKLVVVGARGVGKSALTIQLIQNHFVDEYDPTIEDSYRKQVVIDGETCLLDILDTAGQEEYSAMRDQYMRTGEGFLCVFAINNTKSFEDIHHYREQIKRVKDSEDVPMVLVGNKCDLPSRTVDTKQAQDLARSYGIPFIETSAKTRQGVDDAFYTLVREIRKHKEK
# Assay: Raf1-KRAS G12R-GppNHP disruption HTRF assay (Biological Example 1)
# Assay type: binding
# Conditions: KRAS G12R, GppNHp-loaded; Table 11
# Procedure, shortened: as §1
row,Compound,IC50 [nM]
1,CN1CCN(c2nc(OC[C@@]34CCCN3C[C@H](F)C4)nc3c(F)c(-c4ccc(F)c5sc(N)c(C#N)c45)c(C(F)(F)F)cc23)CCC1=O [Compound 271],100 to 1000
2,N#Cc1c(N)sc2c(F)ccc(-c3c(C(F)(F)F)cc4c(N5CC[C@@H]5CF)nc(OC[C@@]56CCCN5C[C@H](F)C6)nc4c3F)c12 [Compound 272],100 to 1000
3,CC(=O)N1C[C@H](F)[C@@H](N(C)c2nc(OC[C@@]34CCCN3C[C@H](F)C4)nc3c(F)c(-c4ccc(F)c5sc(N)c(C#N)c45)c(C(F)(F)F)cc23)C1 [Compound 273],100 to 1000
4,CN(c1nc(OC[C@@]23CCCN2C[C@H](F)C3)nc2c(F)c(-c3ccc(F)c4sc(N)c(C#N)c34)c(C(F)(F)F)cc12)[C@@H]1CCCOC1 [Compound 274],100 to 1000
5,CC(=O)N1C[C@@H](N(C)c2nc(OC[C@@]34CCCN3C[C@H](F)C4)nc3c(F)c(-c4ccc(F)c5sc(N)c(C#N)c45)c(C(F)(F)F)cc23)C[C@H]1C [Compound 277],100 to 1000
6,CC(=O)N1CCCN(c2nc(OC[C@@]34CCCN3C[C@H](F)C4)nc3c(F)c(-c4ccc(F)c5sc(N)c(C#N)c45)c(C(F)(F)F)cc23)CC1 [Compound 278],100 to 1000

# Same assay, conditions: KRAS G12R-GppNHp/RAF1 RBD HTRF
row,Compound,IC50 [nM]
1,CC(=O)N1C[C@@H](N(C)c2nc(OC[C@@]34CCCN3C[C@H](F)C4)nc3c(F)c(-c4ccc(F)c5sc(N)c(C#N)c45)c(C(F)(F)F)cc23)C[C@@H]1C [Compound 279],100 to 1000

# Test system: GP2d cells (KRAS G12D)
# Assay: Cell-based pERK HTRF assay in GP2d cell (Biological Example 2)
# Conditions: GP2d, GP2d (KRAS G12D) cells, pERK HTRF
# Procedure, shortened: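 GP2d (KRAS G12D) cells were plated in DMEM/10% FBS and treated the next day for 60 min with compounds. Dosing used 9-point half-log series starting at 1 μM or 100 nM in 0.25% DMSO. Lysates were read by HTRF pERK (d2/Eu cryptate antibodies) after 4–24 h at room temperature, with excitation at 320 nm and emission at 615 nm.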
row,Compound,IC50 [nM]
1,CN1CCN(c2nc(OC[C@@]34CCCN3C[C@H](F)C4)nc3c(F)c(-c4ccc(F)c5sc(N)c(C#N)c45)c(C(F)(F)F)cc23)CCC1=O [Compound 271],< 100
2,N#Cc1c(N)sc2c(F)ccc(-c3c(C(F)(F)F)cc4c(N5CC[C@@H]5CF)nc(OC[C@@]56CCCN5C[C@H](F)C6)nc4c3F)c12 [Compound 272],< 100
3,CC(=O)N1C[C@H](F)[C@@H](N(C)c2nc(OC[C@@]34CCCN3C[C@H](F)C4)nc3c(F)c(-c4ccc(F)c5sc(N)c(C#N)c45)c(C(F)(F)F)cc23)C1 [Compound 273],< 100
4,CN(c1nc(OC[C@@]23CCCN2C[C@H](F)C3)nc2c(F)c(-c3ccc(F)c4sc(N)c(C#N)c34)c(C(F)(F)F)cc12)[C@@H]1CCCOC1 [Compound 274],< 100
5,CC(=O)N1C[C@@H](N(C)c2nc(OC[C@@]34CCCN3C[C@H](F)C4)nc3c(F)c(-c4ccc(F)c5sc(N)c(C#N)c45)c(C(F)(F)F)cc23)C[C@H]1C [Compound 277],< 100
6,CC(=O)N1CCCN(c2nc(OC[C@@]34CCCN3C[C@H](F)C4)nc3c(F)c(-c4ccc(F)c5sc(N)c(C#N)c45)c(C(F)(F)F)cc23)CC1 [Compound 278],< 100
7,CC(=O)N1C[C@@H](N(C)c2nc(OC[C@@]34CCCN3C[C@H](F)C4)nc3c(F)c(-c4ccc(F)c5sc(N)c(C#N)c45)c(C(F)(F)F)cc23)C[C@@H]1C [Compound 279],< 100
